From article PMC10044120, “Potent and selective covalent inhibition of the papain-like protease from SARS-CoV-2” (Nature Communications, 2023)
Several values for one entry are separate records, joined by “and”; a condition that tells them apart may be missing. Identical values can stand only once. Like-named read-outs stand apart in the source and are kept apart here.

Tests used:
[1] = biological target: PLpro from SARS-CoV-2 (Severe acute respiratory syndrome coronavirus 2, UniProt P0DTD1); assay: biochemical; assay type: biochemical; set-up: mean (kobs plot, Supplementary Figure 6 II): unit: min^-1
[2] = biological target: T1, USP30 (Homo sapiens, UniProt Q70CQ3); assay: biochemical; conditions: USP30 10 nM, Ub-rhodamine110
T1 construct: purchased LifeSensors, Inc. (Malvern, PA)

[3] = biological target: T2, UCHL1 (Homo sapiens, UniProt P09936); assay: biochemical; conditions: UCHL1 10 nM, Ub-rhodamine110
T2 construct: purchased LifeSensors, Inc. (Malvern, PA)

[4] = tested on: SARS-CoV-2 isolate USA-WA1/2020; conditions: read-out: cytopathic effect, % cell viability, duplicate wells
[5] = tested on: Vero E6 cells; conditions: African green monkey, 48 h
[6] = in vitro; conditions: African green monkey
[7] = tested on: SARS-CoV-2 isolate USA-WA1/2020; assay: microbe, parasite or virus in culture
[8] = Metabolic stability in human liver S9 fraction

T2 sequence (P09936 whole entry): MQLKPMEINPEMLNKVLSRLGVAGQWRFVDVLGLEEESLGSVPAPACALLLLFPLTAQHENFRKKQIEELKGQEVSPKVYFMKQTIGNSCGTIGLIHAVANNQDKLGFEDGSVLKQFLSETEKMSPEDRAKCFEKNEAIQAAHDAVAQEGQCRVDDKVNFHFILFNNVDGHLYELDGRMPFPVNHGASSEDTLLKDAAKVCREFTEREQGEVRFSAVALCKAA
T1 sequence (Q70CQ3 whole entry): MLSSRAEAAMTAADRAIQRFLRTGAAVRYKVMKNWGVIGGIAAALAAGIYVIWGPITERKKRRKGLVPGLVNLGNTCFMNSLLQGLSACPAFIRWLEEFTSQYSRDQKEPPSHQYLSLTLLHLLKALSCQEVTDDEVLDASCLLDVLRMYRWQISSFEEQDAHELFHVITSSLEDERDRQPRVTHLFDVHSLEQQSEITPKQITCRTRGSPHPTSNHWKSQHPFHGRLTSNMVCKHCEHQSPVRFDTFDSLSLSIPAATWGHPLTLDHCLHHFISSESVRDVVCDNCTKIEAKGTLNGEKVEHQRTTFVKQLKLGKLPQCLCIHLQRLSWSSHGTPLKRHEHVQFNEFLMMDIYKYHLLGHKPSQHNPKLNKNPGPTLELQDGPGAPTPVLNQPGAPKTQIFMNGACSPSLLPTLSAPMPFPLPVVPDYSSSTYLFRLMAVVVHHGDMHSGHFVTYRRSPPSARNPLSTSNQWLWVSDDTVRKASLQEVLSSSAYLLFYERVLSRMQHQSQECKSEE

## C[C@@H](NC(=O)c1ccccc1CCC(=O)NNC(=O)CCl)c1cccc2ccccc12 [Compound 9, (R)-2-(3-(2-(2-chloroacetyl)hydrazineyl)-3-oxopropyl)-N-(1-(naphthalen-1-yl)ethyl)benzamide]
[1]
  kinact/KI: 110 M⁻¹ s⁻¹
[1]; 5 min, read-out: PLpro activity after preincubation, inhibitor 1 uM, preincubation 5 min
  remaining activity at 1 µM: 103%
[1]; 5 min, read-out: PLpro activity after preincubation, inhibitor 4 uM, preincubation 5 min
  remaining activity at 4 µM: 97.6%
[1]; 5 min, read-out: PLpro activity after preincubation, inhibitor 5 uM, preincubation 5 min
  remaining activity at 5 µM: 92.9%
[1]; 5 min, read-out: PLpro activity after preincubation, inhibitor 10 uM, preincubation 5 min
  remaining activity at 10 µM: 78.5%
[1]; 5 min, read-out: PLpro activity after preincubation, inhibitor 15 uM, preincubation 5 min
  remaining activity at 15 µM: 66.8%
[1]; 5 min, read-out: PLpro activity after preincubation, inhibitor 25 uM, preincubation 5 min
  remaining activity at 25 µM: 57.8%
[1]; 5 min, read-out: PLpro activity after preincubation, inhibitor 30 uM, preincubation 5 min
  remaining activity at 30 µM: 62%
[1]; 5 min, read-out: PLpro activity after preincubation, inhibitor 36 uM, preincubation 5 min
  remaining activity at 36 µM: 57.3%
[1]; 10 min, read-out: PLpro activity after preincubation, inhibitor 1 uM, preincubation 10 min
  remaining activity at 1 µM: 103%
[1]; 10 min, read-out: PLpro activity after preincubation, inhibitor 2 uM, preincubation 10 min
  remaining activity at 2 µM: 93.2%
[1]; 10 min, read-out: PLpro activity after preincubation, inhibitor 5 uM, preincubation 10 min
  remaining activity at 5 µM: 74%
[1]; 10 min, read-out: PLpro activity after preincubation, inhibitor 10 uM, preincubation 10 min
  remaining activity at 10 µM: 53.4%
[1]; 10 min, read-out: PLpro activity after preincubation, inhibitor 15 uM, preincubation 10 min
  remaining activity at 15 µM: 47.4%
[1]; 10 min, read-out: PLpro activity after preincubation, inhibitor 25 uM, preincubation 10 min
  remaining activity at 25 µM: 38.1%
[1]; 10 min, read-out: PLpro activity after preincubation, inhibitor 30 uM, preincubation 10 min
  remaining activity at 30 µM: 42.9%
[1]; 10 min, read-out: PLpro activity after preincubation, inhibitor 36 uM, preincubation 10 min
  remaining activity at 36 µM: 38.6%
[1]; 20 min, read-out: PLpro activity after preincubation, inhibitor 2 uM, preincubation 20 min
  remaining activity at 2 µM: 77.2%
[1]; 20 min, read-out: PLpro activity after preincubation, inhibitor 8 uM, preincubation 20 min
  remaining activity at 8 µM: 39.6%
[1]; 0.5 h, read-out: PLpro activity after preincubation, inhibitor 1 uM, preincubation 30 min
  remaining activity at 1 µM: 83.9%
[1]; 0.5 h, read-out: PLpro activity after preincubation, inhibitor 2 uM, preincubation 30 min
  remaining activity at 2 µM: 68.5%
[1]; 0.5 h, read-out: PLpro activity after preincubation, inhibitor 4 uM, preincubation 30 min
  remaining activity at 4 µM: 44.8%
[1]; 0.5 h, read-out: PLpro activity after preincubation, inhibitor 5 uM, preincubation 30 min
  remaining activity at 5 µM: 40.6%
[1]; 0.5 h, read-out: PLpro activity after preincubation, inhibitor 8 uM, preincubation 30 min
  remaining activity at 8 µM: 30.9%
[1]; 0.5 h, read-out: PLpro activity after preincubation, inhibitor 10 uM, preincubation 30 min
  remaining activity at 10 µM: 31.6%
[1]; 0.5 h, read-out: PLpro activity after preincubation, inhibitor 15 uM, preincubation 30 min
  remaining activity at 15 µM: 12.2%
[1]; 0.5 h, read-out: PLpro activity after preincubation, inhibitor 25 uM, preincubation 30 min
  remaining activity at 25 µM: 10.3%
[1]; 0.5 h, read-out: PLpro activity after preincubation, inhibitor 30 uM, preincubation 30 min
  remaining activity at 30 µM: 13.7%
[1]; 0.5 h, read-out: PLpro activity after preincubation, inhibitor 36 uM, preincubation 30 min
  remaining activity at 36 µM: 12.5%
[1]; 1 h, read-out: PLpro activity after preincubation, inhibitor 1 uM, preincubation 60 min
  remaining activity at 1 µM: 68.1%
[1]; 1 h, read-out: PLpro activity after preincubation, inhibitor 2 uM, preincubation 60 min
  remaining activity at 2 µM: 42.3%
[1]; 1 h, read-out: PLpro activity after preincubation, inhibitor 4 uM, preincubation 60 min
  remaining activity at 4 µM: 21.8%
[1]; 1 h, read-out: PLpro activity after preincubation, inhibitor 5 uM, preincubation 60 min
  remaining activity at 5 µM: 16.1%
[1]; 1 h, read-out: PLpro activity after preincubation, inhibitor 8 uM, preincubation 60 min
  remaining activity at 8 µM: 10.3%
[1]; 1 h, read-out: PLpro activity after preincubation, inhibitor 15 uM, preincubation 60 min
  remaining activity at 15 µM: 7.87%
[1]; 1 h, read-out: PLpro activity after preincubation, inhibitor 25 uM, preincubation 60 min
  remaining activity at 25 µM: 12.5%
[1]; 85 min, read-out: PLpro activity after preincubation, inhibitor 2 uM, preincubation 85 min
  remaining activity at 2 µM: 29.8%
[1]; 110 min, read-out: PLpro activity after preincubation, inhibitor 2 uM, preincubation 110 min
  remaining activity at 2 µM: 18%
[1]; […], read-out: PLpro activity after preincubation, inhibitor 1 uM, preincubation 15 min
  remaining activity at 1 µM: 93.3%
[1]; […], read-out: PLpro activity after preincubation, inhibitor 1 uM, preincubation 45 min
  remaining activity at 1 µM: 79.9%
[1]; […], read-out: PLpro activity after preincubation, inhibitor 1 uM, preincubation 90 min
  remaining activity at 1 µM: 54%
[1]; […], read-out: PLpro activity after preincubation, inhibitor 2 uM, preincubation 45 min
  remaining activity at 2 µM: 56.1%
[1]; […], read-out: PLpro activity after preincubation, inhibitor 4 uM, preincubation 15 min
  remaining activity at 4 µM: 73.3%
[1]; […], read-out: PLpro activity after preincubation, inhibitor 4 uM, preincubation 45 min
  remaining activity at 4 µM: 30.6%
[1]; […], read-out: PLpro activity after preincubation, inhibitor 4 uM, preincubation 90 min
  remaining activity at 4 µM: 18.5%
[1]; […], read-out: PLpro activity after preincubation, inhibitor 5 uM, preincubation 15 min
  remaining activity at 5 µM: 57.4%
[1]; […], read-out: PLpro activity after preincubation, inhibitor 5 uM, preincubation 45 min
  remaining activity at 5 µM: 20.3%
[1]; […], read-out: PLpro activity after preincubation, inhibitor 5 uM, preincubation 90 min
  remaining activity at 5 µM: 9.23%
[1]; […], read-out: PLpro activity after preincubation, inhibitor 8 uM, preincubation 45 min
  remaining activity at 8 µM: 12.3%
[1]; […], read-out: PLpro activity after preincubation, inhibitor 10 uM, preincubation 15 min
  remaining activity at 10 µM: 49.7%
[1]; […], read-out: PLpro activity after preincubation, inhibitor 10 uM, preincubation 45 min
  remaining activity at 10 µM: 14.1%
[1]; […], read-out: PLpro activity after preincubation, inhibitor 15 uM, preincubation 15 min
  remaining activity at 15 µM: 40.2%
[1]; […], read-out: PLpro activity after preincubation, inhibitor 15 uM, preincubation 45 min
  remaining activity at 15 µM: 10.8%
[1]; […], read-out: PLpro activity after preincubation, inhibitor 15 uM, preincubation 90 min
  remaining activity at 15 µM: 12.6%
[1]; […], read-out: PLpro activity after preincubation, inhibitor 25 uM, preincubation 15 min
  remaining activity at 25 µM: 17.8%
[1]; […], read-out: PLpro activity after preincubation, inhibitor 25 uM, preincubation 90 min
  remaining activity at 25 µM: 10.7%
[1]; […], read-out: PLpro activity after preincubation, inhibitor 30 uM, preincubation 15 min
  remaining activity at 30 µM: 29.9%
[1]; […], read-out: PLpro activity after preincubation, inhibitor 30 uM, preincubation 45 min
  remaining activity at 30 µM: 6.98%
[1]; […], read-out: PLpro activity after preincubation, inhibitor 36 uM, preincubation 15 min
  remaining activity at 36 µM: 18%
[1]; […], read-out: PLpro activity after preincubation, inhibitor 36 uM, preincubation 45 min
  remaining activity at 36 µM: 6.34%
[1]; fluorogenic peptide assay, varied preincubation time
  Time dep. (time-dependent inhibition): Yes
[1]; inhibitor 1 uM
  mean (kobs plot, Supplementary Figure 6 II): 0.0070
[1]; inhibitor 2 uM
  mean (kobs plot, Supplementary Figure 6 II): 0.0147
[1]; inhibitor 4 uM
  mean (kobs plot, Supplementary Figure 6 II): 0.0210
[1]; inhibitor 5 uM
  mean (kobs plot, Supplementary Figure 6 II): 0.0344
[1]; inhibitor 8 uM
  mean (kobs plot, Supplementary Figure 6 II): 0.0503
[1]; inhibitor 10 uM
  mean (kobs plot, Supplementary Figure 6 II): 0.0558
[1]; inhibitor 13 uM
  mean (kobs plot, Supplementary Figure 6 II): 0.0770
[1]; inhibitor 15 uM
  mean (kobs plot, Supplementary Figure 6 II): 0.0658
[1]; inhibitor 25 uM
  mean (kobs plot, Supplementary Figure 6 II): 0.0896
[1]; inhibitor 30 uM
  mean (kobs plot, Supplementary Figure 6 II): 0.0802
[1]; inhibitor 36 uM
  mean (kobs plot, Supplementary Figure 6 II): 0.0968
[2]
  IC50: > 30 µM
[3]
  IC50: > 30 µM
[4]; [inhibitor] 2.08 uM, 2.08 µM
  inhibition: 12%
[4]; [inhibitor] 8.33 uM, 8.33 µM
  inhibition: 17.9%
[4]; [inhibitor] 16.65 uM, 16.65 µM
  inhibition: 21%
[5]; 2.08 µM
  cytotoxicity, %cell viability: 100.620%
[5]; 8.33 µM
  cytotoxicity, %cell viability: 103.333%
[5]; 16.65 µM
  cytotoxicity, %cell viability: 94.042%
[6]; CC50
  CC50 at 48 h: > 30 µM
[6]; cytotoxicity, %cell viability
  viability at 48 h, 2.08 µM: 102%
  viability at 48 h, 8.33 µM: 99.1%
  viability at 48 h, 16.65 µM: 91.4%
[7]; Severe acute respiratory syndrome coronavirus 2, Vero C1008, 48 h, read-out: EC50 (cytopathic effect)
  EC50: 34 µM
[7]; Severe acute respiratory syndrome coronavirus 2, Vero C1008, read-out: cytopathic effect, % cell viability
  inhibition at […]: 17.4% and 13.2%
[7]; Severe acute respiratory syndrome coronavirus 2, Vero C1008, read-out: cytopathic effect, % cell viability, [inhibitor] 2.08 uM, duplicate wells
  inhibition at 2.08 µM: 10.7%
[7]; Severe acute respiratory syndrome coronavirus 2, Vero C1008, read-out: cytopathic effect, % cell viability, [inhibitor] 8.33 uM, duplicate wells
  inhibition at 8.33 µM: 26.9%
[7]; Severe acute respiratory syndrome coronavirus 2, Vero C1008, read-out: cytopathic effect, % cell viability, [inhibitor] 16.65 uM, duplicate wells
  inhibition at 16.65 µM: 19.8%
[8]
  half-life: 3 min
  microsomal CLint: 689 µL/min/mg
